In patent US20120028918A1, “PHARMACEUTICAL COMPOSITIONS AND METHODS OF MAKING SAME” (GLAXO WELLCOME MANUFACTURING PTE LTD., priority 2010, published 2012) one finds IC50 data, which are given here for two compounds.

The structures appear in SMILES notation.

One assay concerns the target T1, Akt1 (Homo sapiens, UniProt P31749).
T1 construct: a middle T tag was added to the 5′ end of the full length Akt1 gene; middle T tag (EYMPME) (N); biotin tag (from pS2neo vector); made in house; host or cells: Drosophila S2 cells
The assay is described as follows: Akt kinase assay (HTRF, GSK-derived biotinylated peptide substrate). The assay is classed as biochemical. The conditions noted are these: activated Akt1, HTRF, 120 minute preincubation; read-out: IC50 against Akt1. On the procedure: (§1) Activated Akt isoforms were assayed utilizing a GSK-derived biotinylated peptide substrate. The extent of peptide phosphorylation was determined by Homogeneous Time Resolved Fluorescence (HTRF) using a europium-coupled monoclonal antibody specific for the phosphopeptide in combination with a streptavidin-linked allophycocyanin (SA-APC) fluorophore which will bind to the biotin moiety on the peptide. When the europium and APC are in proximity (i.e. bound to the same phosphopeptide molecule), a non-radiative energy transfer takes place from the […] to the APC, followed by emission of light from APC at 665 nm.
(§2) Materials required for the assay: • A. 100 nM activated Akt1 or 225 nM activated Akt2 • B. 10×R for AKT assay buffer (500 mM Hepes pH 7.5, 1% PEG m.w. 15000-20000, 1 mM EDTA, 1 mM EGTA, 1% BSA, 20 mM β glycerol phosphate) • C. 1 M KCl • D. 50% glycerol • E. 250 mM MgCl2 • F. 50 mM ATP pH 7.0 • G. 0.2 M DTT • H. 1 mM GSK3α biotinylated peptide (SynPep biotin-[…]-COOH) • I. Stop Buffer: 40 mM EDTA (pH8.4) • J. 8.5 uM SA-APC (PerkinElmer #CR130-100, lot No. N01001K-AAG16) • K. 4.9 uM Eu-W 1024 labeled phos-GSK3 monoclonal antibody (PerkinElmer #CUSM63178) • L. Detection Reagent: 15 mM Tris-HCl ([…]), 0.1% Tween20, 250 nM SA-APC (PerkinElmer #CR130-100, lot No. N01001K-AAG16), 0.735 nM Eu-W1024 labeled phos-GSK3 monoclonal antibody (PerkinElmer #CUSM63178) The reaction was assembled using the following protocol: • A. Add 0.5 uL inhibitor to test wells or 0.5 uL DMSO to no drug control wells. • B. Prepare Enzyme diluent: 18000 uL 10×R for AKT assay buffer, 9600 uL 250 mM MgCl2, 12000 uL 1 M KCl, 18000 uL 50% Glycerol, 900 uL 0.2 M DTT, 121500 uL MilliQ water. • C. Prepare Enzyme mixture (E-Mix): To […] Enzyme diluent, added 4.3 uL of a 100 nM activated AKT1, 1.9 uL of a 225 nM stock of activated Akt2 so concentration AKT1 and Akt2 were 6 pM. • D. 10 uL of Stop Buffer was added manually to wells acting as Background control wells. Initiate preincubation reactions by adding 15 uL of E-Mix using Multidrop 384. Spin down assay plates after the addition of E-Mix. • E. Prepare ATP/Peptide working solution (S-Mix): 10000 uL 10×R for AKT assay buffer, 5000 uL 50% glycerol, 250 uL 0.2M DTT, 600 uL 50 mM ATP, 100 uL 1 mM GSK3 peptide, 34050 uL MilliQ water. • F. To wells where preincubation is being conducted, after the 120 minute preincubation, initiate kinase reactions by adding 5 uL S-Mix using FRD. […] Let kinase assays run for 60 minutes at 25° C. • G. Stop kinase reactions by adding 10 uL Stop Buffer, using Multidrop 384, to wells other than background wells. • H. 10 uL of Detection Reagent was added using FRD and stopped assays were stored at room temperature for more than 2 hours. • I. The plates were read on PHERAstar.
For orientation: In TR-FRET formats the signal depends on donor and acceptor labels being close together.

A further assay has as its target T2, Akt2 (Homo sapiens, UniProt P31751).
T2 construct: a middle T tag was added to the 5′ end of the full length Akt2 using the PCR primer; middle T tag (EYMPME) (N); biotin tag (from pS2neo vector); made in house; host or cells: Drosophila S2 cells
Described as above. The assay is classed as biochemical. The conditions noted are these: activated Akt2, HTRF, 120 minute preincubation; read-out: IC50 against Akt2. On the procedure:
as §1, §2

T2 sequence (P31751 whole entry): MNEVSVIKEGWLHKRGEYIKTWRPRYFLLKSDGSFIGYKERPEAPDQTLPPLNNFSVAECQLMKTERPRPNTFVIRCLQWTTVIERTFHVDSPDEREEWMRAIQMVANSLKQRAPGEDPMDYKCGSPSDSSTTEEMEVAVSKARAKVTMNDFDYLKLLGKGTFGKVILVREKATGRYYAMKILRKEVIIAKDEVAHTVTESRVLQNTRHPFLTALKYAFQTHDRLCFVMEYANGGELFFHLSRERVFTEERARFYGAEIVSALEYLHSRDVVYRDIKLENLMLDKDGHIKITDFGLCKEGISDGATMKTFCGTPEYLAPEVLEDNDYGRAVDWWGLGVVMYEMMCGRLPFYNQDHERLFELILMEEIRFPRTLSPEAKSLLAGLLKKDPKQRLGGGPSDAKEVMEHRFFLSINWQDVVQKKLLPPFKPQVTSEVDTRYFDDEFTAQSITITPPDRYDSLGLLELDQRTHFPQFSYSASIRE
T1 sequence (P31749 whole entry): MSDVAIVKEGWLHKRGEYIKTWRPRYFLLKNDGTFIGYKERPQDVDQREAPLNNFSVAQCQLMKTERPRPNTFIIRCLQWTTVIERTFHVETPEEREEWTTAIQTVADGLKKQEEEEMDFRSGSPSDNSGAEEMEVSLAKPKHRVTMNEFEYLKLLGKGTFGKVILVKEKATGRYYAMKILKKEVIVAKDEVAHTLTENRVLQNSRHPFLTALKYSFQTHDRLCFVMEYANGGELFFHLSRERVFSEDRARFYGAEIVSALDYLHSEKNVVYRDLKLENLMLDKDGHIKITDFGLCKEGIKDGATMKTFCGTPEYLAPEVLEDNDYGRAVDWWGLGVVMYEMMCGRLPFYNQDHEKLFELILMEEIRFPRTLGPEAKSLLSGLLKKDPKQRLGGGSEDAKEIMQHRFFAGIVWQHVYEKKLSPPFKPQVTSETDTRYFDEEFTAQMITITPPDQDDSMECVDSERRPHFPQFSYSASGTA

A word on the IC50: it is the concentration at which inhibition is half-maximal. Consider `COc1cncc(-c2nc(-c3ccc([C@]4(N)C[C@](C)(O)C4)cc3)c(-c3ccccc3)s2)c1` [Compound 3-1, (1R,3R)-3-amino-3-(4-(2-(5-methoxypyridin-3-yl)-5-phenylthiazol-4-yl)phenyl)-1-methylcyclobutanol], for which the IC50 on Akt1 worked out at 40 nM; at Akt2, 25 nM.

With `COc1ccc(-c2nc(-c3ccc([C@]4(N)C[C@](C)(O)C4)cc3)c(-c3ccccc3)s2)cn1` [Compound 2-1, (1R,3R)-3-amino-3-(4-(2-(6-methoxypyridin-3-yl)-5-phenylthiazol-4-yl)phenyl)-1-methylcyclobutanol], the results for the IC50 on Akt1 and at Akt2 were 91 nM and 26 nM, respectively.
